Laboratory results published in US12390423B2 (priority 2019, dated 2025).

Key:
[1] = test system: insulin signaling (pAkt-Ser473), MAPK, AMPK; assay: Immunoblotting (pAkt, pERK1/2, pP38, pAMPKα, PGC-1α) and NAO mitochondrial mass in C2C12 myotubes; assay type: cell-based, mouse
Procedure: For all ROS studies, INS-1 (832/13) cells and C2C12 myotubes were treated with or without palmitate and FAO inhibitors for 24 h in low glucose cell culture media as described for the FAO assay. After treatment, cells were trypsinized and re-suspended in PBS containing 5 μM of the fluorescent dye MitoSOX® (Molecular Probes, Invitrogen) and allowed to incubate for 5-15 minutes in a humidified atmosphere containing 5% CO2 at 37° C. Cells were then washed in PBS, placed in a 96 well plate and fluorescence was measured by flow cytometry. ROS was quantified by normalizing the mean fluorescence values of live gated cells to vehicle control. Mitochondrial membrane potential (MMP) in INS-1 (832/13) and C2C12 myotubes was measured using the cationic fluorescent dye JC-1 (Molecular Probes). JC-1 accumulates in the mitochondrial matrix in an MMP dependent manner. JC-1 fluoresces green in the cytosol where it exists as a monomer, after entering the mitochondria JC-1 monomers form J aggregates and fluoresce red, thus the red/green fluorescence ratio is used to determine MMP. After all treatments, cells were washed, trypsinized and re-suspended in PBS containing 1 μM JC-1 and allowed to incubate for 5-10 minutes in a humidified atmosphere containing 5% CO2 at 37° C. Cells were then washed in PBS, placed in a 96 well plate and fluorescence was measured by flow cytometry. MMP was quantified by normalizing the mean fluorescence values of live gated cells to vehicle control. Mitochondrial mass was measured using 10-N-nonyl acridine orange (NAO; Enzo Life Sciences, ENZ-52306), which accumulates in the mitochondria in an MMP-independent manner where it binds to cardiolipin in the inner mitochondrial membrane. Cells were treated, washed and collected as described and incubated with 0.35 μM NAO and green fluorescence was measured using flow cytometry. In all analysis (ROS, MMP and mitochondrial mass), forward vs side scatter plots were gated to exclude debris (e.g., dead cells), as cell death is associated with increased ROS and altered membrane potentials. For all cell culture experiments, after drug treatments cells were washed with chilled phosphate-buffered saline (PBS), and lysed in chilled lysis buffer with 1× protease inhibitor cocktail (Sigma). RIPA lysis buffer (Sigma-Aldrich) was used for INS-1 (832/13) cells and muscle lysis buffer for C2C12 myotubes (20 mM HEPES, 10 mM NaCl, 1.5 mM MgCl2, 1 mM DTT, 20% glycerol, and 0.1% Triton-X100). Cells were scraped, mechanically homogenized using a syringe and centrifuged at 14,000×g for 20 min at 4° C. and the supernatants were collected. For preparation of all gastrocnemius muscle lysates, 10 mg frozen tissue (wet weight) was washed in chilled PBS, placed in a dounce homogenizer, lysed in muscle lysis buffer and centrifuged at 14,000×g for 20 min at 4° C. and the supernatant was collected. Protein content for cell and tissue lysates was measured using the BCA protein assay kit (ThermoFisher) according to manufacturer's protocol. Thirty μg protein lysates were prepared in loading buffer and immunoblotting was performed by heating lysates for 5 minutes at 95° C. and subjecting them to gel electrophoresis on 10% SDS-polyacrylamide gels at 150 V for 75 minutes. Using a semi-dry transfer apparatus (Bio-Rad) the gels were then transferred at 25V for 45 minutes to a PVDF membrane and blocked with 5% BSA (Sigma) in tris-buffered saline-tween (TBS-T) for 1 hour. […]

pAkt-Ser473 and CPT-1A = assay: Immunoblotting of gastrocnemius muscle lysates of DIO mice; assay type: in vivo, C57BL/6J mice
Procedure: For all cell culture experiments, after drug treatments cells were washed with chilled phosphate-buffered saline (PBS), and lysed in chilled lysis buffer with 1× protease inhibitor cocktail (Sigma). RIPA lysis buffer (Sigma-Aldrich) was used for INS-1 (832/13) cells and muscle lysis buffer for C2C12 myotubes (20 mM HEPES, 10 mM NaCl, 1.5 mM MgCl2, 1 mM DTT, 20% glycerol, and 0.1% Triton-X100). Cells were scraped, mechanically homogenized using a syringe and centrifuged at 14,000×g for 20 min at 4° C. and the supernatants were collected. For preparation of all gastrocnemius muscle lysates, 10 mg frozen tissue (wet weight) was washed in chilled PBS, placed in a dounce homogenizer, lysed in muscle lysis buffer and centrifuged at 14,000×g for 20 min at 4° C. and the supernatant was collected. Protein content for cell and tissue lysates was measured using the BCA protein assay kit (ThermoFisher) according to manufacturer's protocol. Thirty μg protein lysates were prepared in loading buffer and immunoblotting was performed by heating lysates for 5 minutes at 95° C. and subjecting them to gel electrophoresis on 10% SDS-polyacrylamide gels at 150 V for 75 minutes. Using a semi-dry transfer apparatus (Bio-Rad) the gels were then transferred at 25V for 45 minutes to a PVDF membrane and blocked with 5% BSA (Sigma) in tris-buffered saline-tween (TBS-T) for 1 hour. […]

avocatin B [AvoB]
Palmitate induced phosphorylation of MAPK ERK1/2 and P38 ([1]; 25 μM AvoB, 0.5 mM palmitate, 24 h): reduce palmitate induced phosphorylation
AMPK activation (pAMPKα-Thr172) ([1]; 25 μM AvoB, 24 h): independent of AMPK activation
Mitochondrial biogenesis (PGC-1α protein, NAO dye) ([1]; 25 μM AvoB, 24 h): independent
Insulin signaling (insulin stimulated phosphorylation of AKT Ser473) ([1]; 0.5 mM palmitate 24 h, 100 nM insulin 30 min, AvoB 25 μM, DCA 1 mM, TRI 25 μM): restore the suppressive effects of lipotoxicity on insulin stimulated phosphorylation of AKT^Ser473
Phosphorylation of AKT Ser473 in gastrocnemius muscle (pAkt-Ser473 and CPT-1A; AvoB-treated-HFD mice vs HFD-control mice): increased phosphorylation of AKTSer473
CPT-1A protein level in gastrocnemius muscle (pAkt-Ser473 and CPT-1A; HFD-control mice compared to AVO-treated-HFD mice): higher protein levels of CPT-1A in gastrocnemius muscle compared to AVO-treated-HFD mice
